Experimental data as given in patent US11654198B2, “Application of combination of polyethylene glycol and local anesthetic in non-narcotic analgesia” (JENKEM TECHNOLOGY CO., LTD. (TIANJIN), priority 2016, dated 2023).

What was measured:
SD rats [1] = test: Sensory block, hot plate paw withdrawal time, bupivacaine minimum/maximum analgesic dose test (Example 28); type: in vivo, rat
Source text: 1.3 Test substance: bupivacaine injection, diluted with physiological saline to the target concentration; the reference substance is physiological saline.
After the animals are anesthetized by intraperitoneal injection of 10% chloral hydrate solution, the sciatic nerve is exposed to the biceps and gluteus maximus joints of the hind limbs through surgery, and silicone flexible catheters of the same length (7 cm) are placed around the sciatic nerve. the other ends of the catheters are subcutaneously embedded in the back of the rat, and then sutured and fixed, and 0.2 mL of an antibiotic solution (5,000 U/ml penicillin G) is injected for anti-inflammatory.
After 2-3 days of catheterization, the SD rats with the body weight of 230-250 g and into which catheters are embedded are screened before the experiment by a hot plate method. The hot plate is heated to (56±1)° C., one of the hind paws of the rat is placed on the hot plate, and the other hind paw is placed in the laboratory room temperature condition, and the tested paw withdrawal time is observed and recorded. The average value of three times measured is recorded as a basic pain threshold.
Twenty-four qualified rats (animals with no dyskinesia and pain threshold change after catheterization) are randomly divided into 6 groups, 4 rats in each group, the first group is a control group, the experimental animals are administered with normal saline, and the other groups are administered with different doses of bupivacaine injection. Each group is injected with a corresponding drug through the catheter around the sciatic nerve.
The sensory block of the rats is examined by a hot plate method. The hot plate is heated to (56±1)° C., one of the hind paws of the rat is placed on the hot plate, and the other hind paw is placed at room temperature in the laboratory, the tested paw withdrawal time is observed and recorded. The average value of two to three times is recorded as a pain threshold. The paw withdrawal time of the hot plate method is recorded. In order to avoid the damage of the experimental animal body, if the rat has not withdrawal paw in the hot plate experiment for more than 15 s, the rat should be removed from the hot plate, and the experimental result is recorded as 15 s. The time point for determining the paw withdrawal time of the hot plate is before administration, and 5 minutes, 10 minutes, 30 minutes, 1 hour, and 2 hours after administration.

SD rats [2] = test: Hot plate paw withdrawal time, rat sciatica model, intervertebral disc compression (SNL) (Example 32); type: in vivo
Source text: (§1) Intervertebral disc compression (SNL): This model is a pathological form that simulates clinical disc herniation. The specific method is to remove the autogenous caudal intervertebral disc tissue (annulus fibrosus and nucleus pulposus) form the rats and place the caudal intervertebral disc tissue between the proximal nerve root of the L5 dorsal root ganglion and the lower vertebral body to directly compress the L5 nerve root, wherein damage to the L5 nerve root or dorsal root ganglion should be avoided during the operation. 3 to 15 days after the model is successful, rats develop significant hyperalgesia, so the administration time we chose is between 3 days and 15 days.
(§2) Qualified rats are randomly divided into 5 groups, 6 rats in each group, which are labeled as groups G1, G2, G3, G4 and G5, respectively. Administration by intramuscular injection around sciatic nerve is adopted, and the grouping information of the experimental animals is shown in Table 11.
Sensory block (hot plate paw withdrawal time): The sensory block of the rat is examined by a hot plate method, and the hot plate is heated to (56±1)° C., and one of the hind paws of the rat is placed on the hot plate, the other hind paw is in the laboratory room temperature condition, and the tested paw withdrawal time is observed and recorded. The average value of two to three times measured is recorded as a pain threshold. In order to avoid the damage of the experimental animal body, if the rat has no paw withdrawal in the hot plate experiment for more than 15 s, the paws should be removed from the hot plate, and the experimental result is recorded as 15 s. The time point for determining the withdrawal time of the hot plate is before administration, and 0.5 h, 1 h, 2 h, 4 h, 6 h, 8 h, 12 h, and 24 h after administration.

SD rats [3] = test: Motor block four-level score, rat sciatica model (SNL) (Example 32); type: in vivo; design: key to motor function score: 1 = normal paw movement to 4 = complete loss, gait defect; conditions: bupivacaine 8, conjugate 10/11/12 32/24/48 mg/kg
Source text: as §1, §2
Motor block (four-level score): The exercise condition of each group of rats is evaluated by the motor block four-level scoring method. The scoring criteria are: paws can be dorsiflexed, stretched, valgus and other normal exercises, scored by 1 point; paws can be dorsiflexed, bendable or after the adduction, although the paws can be stretched, the stretching ability is weakened, scored by 2 points; the paw can perform dorsiflexion, but no longer has the ability to stretch, scored by 3 points; the paw completely loses the ability of dorsiflexion, curling and stretching, and the rats produce a gait defect, scored by 4 points. The time point for determining the withdrawal time of the hot plate is before administration, and 0.5 h, 1 h, 2 h, 4 h, 6 h, 8 h, 12 h, and 24 h after administration.

Q: `CCCCN1CCCCC1C(=O)Nc1c(C)cccc1C` (stereo not drawn) [bupivacaine] was tested. Which “hot plate paw withdrawal time” value (SD rats [1]; group 2, 3 mg/kg (0.66 mg/rat) trans-catheter, 0 min (before administration)) did it give?
A: Its value is 3.26 ± 0.88 s.

Q: What about the “hot plate paw withdrawal time” value (SD rats [1]; group 2, 3 mg/kg (0.66 mg/rat) trans-catheter, 5 min) of the same molecule?
A: The value was 6.32 ± 2.29 s.

Q: What about the “hot plate paw withdrawal time” value (SD rats [1]; group 2, 3 mg/kg (0.66 mg/rat) trans-catheter, 10 min) of the same molecule?
A: Its value is 7.7 ± 3.88 s.

Q: What about the “hot plate paw withdrawal time” value (SD rats [1]; group 2, 3 mg/kg (0.66 mg/rat) trans-catheter, 30 min) of the same molecule?
A: Its value is 7.85 ± 3.36 s.

Q: And the “hot plate paw withdrawal time” value (SD rats [1]; group 2, 3 mg/kg (0.66 mg/rat) trans-catheter, 60 min)?
A: The value was 5.91 ± 1.9 s.

Q: And the “hot plate paw withdrawal time” value (SD rats [1]; group 2, 3 mg/kg (0.66 mg/rat) trans-catheter, 120 min)?
A: Its value is 4.26 ± 1.42 s.

Q: And the “hot plate paw withdrawal time” value (SD rats [1]; group 3, 1 mg/kg (0.22 mg/rat) trans-catheter, 0 min (before administration))?
A: The value was 2.75 ± 0.74 s.

Q: And the “hot plate paw withdrawal time” value (SD rats [1]; group 3, 1 mg/kg (0.22 mg/rat) trans-catheter, 5 min)?
A: The value was 5.17 ± 5.41 s.

Q: What about the “hot plate paw withdrawal time” value (SD rats [1]; group 3, 1 mg/kg (0.22 mg/rat) trans-catheter, 10 min) of the same molecule?
A: The value was 7.13 ± 5.43 s.

Q: What about the “hot plate paw withdrawal time” value (SD rats [1]; group 3, 1 mg/kg (0.22 mg/rat) trans-catheter, 30 min) of the same molecule?
A: The value was 7.13 ± 4.01 s.

Q: What about the “hot plate paw withdrawal time” value (SD rats [1]; group 3, 1 mg/kg (0.22 mg/rat) trans-catheter, 60 min) of the same molecule?
A: Its value is 3.24 ± 0.85 s.

Q: And the “hot plate paw withdrawal time” value (SD rats [1]; group 3, 1 mg/kg (0.22 mg/rat) trans-catheter, 120 min)?
A: The value was 2.13 ± 0.8 s.

Q: What about the “hot plate paw withdrawal time” value (SD rats [1]; group 4, 0.3 mg/kg (0.066 mg/rat) trans-catheter, 0 min (before administration)) of the same molecule?
A: Its value is 3.42 ± 0.87 s.

Q: What about the “hot plate paw withdrawal time” value (SD rats [1]; group 4, 0.3 mg/kg (0.066 mg/rat) trans-catheter, 5 min) of the same molecule?
A: The value was 6.08 ± 1.68 s.

Q: And the “hot plate paw withdrawal time” value (SD rats [1]; group 4, 0.3 mg/kg (0.066 mg/rat) trans-catheter, 10 min)?
A: Its value is 7.11 ± 2.55 s.

Q: What about the “hot plate paw withdrawal time” value (SD rats [1]; group 4, 0.3 mg/kg (0.066 mg/rat) trans-catheter, 30 min) of the same molecule?
A: Its value is 7.09 ± 1.45 s.

Q: And the “hot plate paw withdrawal time” value (SD rats [1]; group 4, 0.3 mg/kg (0.066 mg/rat) trans-catheter, 60 min)?
A: The value was 3.62 ± 1.25 s.

Q: And the “hot plate paw withdrawal time” value (SD rats [1]; group 4, 0.3 mg/kg (0.066 mg/rat) trans-catheter, 120 min)?
A: Its value is 3.76 ± 0.69 s.

Q: What about the “hot plate paw withdrawal time” value (SD rats [1]; group 5, 0.1 mg/kg (0.022 mg/rat) trans-catheter, 0 min (before administration)) of the same molecule?
A: The value was 3.08 ± 0.61 s.

Q: And the “hot plate paw withdrawal time” value (SD rats [1]; group 5, 0.1 mg/kg (0.022 mg/rat) trans-catheter, 5 min)?
A: The value was 4.41 ± 3.24 s.

Q: And the “hot plate paw withdrawal time” value (SD rats [1]; group 5, 0.1 mg/kg (0.022 mg/rat) trans-catheter, 10 min)?
A: Its value is 4.22 ± 2.45 s.

Q: What about the “hot plate paw withdrawal time” value (SD rats [1]; group 5, 0.1 mg/kg (0.022 mg/rat) trans-catheter, 30 min) of the same molecule?
A: Its value is 3.59 ± 1.89 s.

Q: And the “hot plate paw withdrawal time” value (SD rats [1]; group 5, 0.1 mg/kg (0.022 mg/rat) trans-catheter, 60 min)?
A: Its value is 2.63 ± 0.41 s.

Q: And the “hot plate paw withdrawal time” value (SD rats [1]; group 5, 0.1 mg/kg (0.022 mg/rat) trans-catheter, 120 min)?
A: The value was 2.96 ± 1.38 s.

Q: What about the “hot plate paw withdrawal time” value (SD rats [1]; group 6, 0.03 mg/kg (0.0066 mg/rat) trans-catheter, 0 min (before administration)) of the same molecule?
A: Its value is 3.06 ± 1.1 s.

Q: And the “hot plate paw withdrawal time” value (SD rats [1]; group 6, 0.03 mg/kg (0.0066 mg/rat) trans-catheter, 5 min)?
A: The value was 3.36 ± 0.91 s.

Q: And the “hot plate paw withdrawal time” value (SD rats [1]; group 6, 0.03 mg/kg (0.0066 mg/rat) trans-catheter, 10 min)?
A: Its value is 2.67 ± 0.6 s.

Q: What about the “hot plate paw withdrawal time” value (SD rats [1]; group 6, 0.03 mg/kg (0.0066 mg/rat) trans-catheter, 30 min) of the same molecule?
A: The value was 3.11 ± 1.22 s.

Q: What about the “hot plate paw withdrawal time” value (SD rats [1]; group 6, 0.03 mg/kg (0.0066 mg/rat) trans-catheter, 60 min) of the same molecule?
A: Its value is 2.66 ± 0.53 s.

Q: What about the “hot plate paw withdrawal time” value (SD rats [1]; group 6, 0.03 mg/kg (0.0066 mg/rat) trans-catheter, 120 min) of the same molecule?
A: The value was 3.09 ± 0.82 s.

Q: What about the “hot plate paw withdrawal time” value (SD rats [2]; 0 h (after surgery, before administration), bupivacaine 8, conjugate 10/11/12 32/24/48 mg/kg) of the same molecule?
A: The value was 2.28 s.

Q: And the “hot plate paw withdrawal time” value (SD rats [2]; 0.5 h after intramuscular injection around sciatic nerve, bupivacaine 8, conjugate 10/11/12 32/24/48 mg/kg)?
A: Its value is 7.39 s.

Q: And the “hot plate paw withdrawal time” value (SD rats [2]; 1 h after intramuscular injection around sciatic nerve, bupivacaine 8, conjugate 10/11/12 32/24/48 mg/kg)?
A: The value was 9.22 s.

Q: And the “hot plate paw withdrawal time” value (SD rats [2]; 2 h after intramuscular injection around sciatic nerve, bupivacaine 8, conjugate 10/11/12 32/24/48 mg/kg)?
A: The value was 2.81 s.

Q: What about the “hot plate paw withdrawal time” value (SD rats [2]; 4 h after intramuscular injection around sciatic nerve, bupivacaine 8, conjugate 10/11/12 32/24/48 mg/kg) of the same molecule?
A: The value was 1.89 s.

Q: And the “hot plate paw withdrawal time” value (SD rats [2]; 6 h after intramuscular injection around sciatic nerve, bupivacaine 8, conjugate 10/11/12 32/24/48 mg/kg)?
A: The value was 1.78 s.

Q: And the “hot plate paw withdrawal time” value (SD rats [2]; 8 h after intramuscular injection around sciatic nerve, bupivacaine 8, conjugate 10/11/12 32/24/48 mg/kg)?
A: The value was 1.95 s.

Q: What about the “hot plate paw withdrawal time” value (SD rats [2]; 12 h after intramuscular injection around sciatic nerve, bupivacaine 8, conjugate 10/11/12 32/24/48 mg/kg) of the same molecule?
A: The value was 2.43 s.

Q: And the “hot plate paw withdrawal time” value (SD rats [2]; 24 h after intramuscular injection around sciatic nerve, bupivacaine 8, conjugate 10/11/12 32/24/48 mg/kg)?
A: Its value is 1.72 s.

Q: What about the “hot plate paw withdrawal time” value (SD rats [2]; before surgery, bupivacaine 8, conjugate 10/11/12 32/24/48 mg/kg (as bupivacaine)) of the same molecule?
A: Its value is 5.40 s.

Q: And the motor function score (SD rats [3]; 0.5 h)?
A: The motor function score was 1 ± 0.

Q: What about the motor function score (SD rats [3]; 1 h) of the same molecule?
A: Its motor function score is 1.75 ± 0.5.

Q: What about the motor function score (SD rats [3]; 2 h) of the same molecule?
A: The motor function score was 1.75 ± 0.5.

Q: And the motor function score (SD rats [3]; 4 h)?
A: Its motor function score is 1.75 ± 0.5.

Q: And the motor function score (SD rats [3]; 6 h)?
A: The motor function score was 1.75 ± 0.5.

Q: What about the motor function score (SD rats [3]; 8 h) of the same molecule?
A: The motor function score was 1.75 ± 0.5.

Q: And the motor function score (SD rats [3]; 12 h)?
A: Its motor function score is 1 ± 0.

Q: And the motor function score (SD rats [3]; 24 h)?
A: Its motor function score is 1 ± 0.
